The results in this text go back to patent publication US4663327A, “1-heteroaryl-4-aryl-pyrazolin-5-ones” (priority 1984, dated 1987).

In brackets after ≈: the same amount, converted by molar mass.

In the first assay the test system is Phytophthora infestans.
Assay: not given
Type of assay: in vivo. The conditions noted are these: tomato, sprayed, evaluation 3 days after inoculation.
As to `O=c1c(-c2ccc(Cl)c(Cl)c2)c[nH]n1-c1ccccn1` [Example 13], the protective activity entry is reported as “clearly superior activity compared with the prior art”.
For the compound `O=c1c(-c2cccc(OC(F)(F)F)c2)c[nH]n1-c1ncccn1` [Example 92], the protective activity entry is on record as “clearly superior activity compared with the prior art”.
As to `O=c1c(-c2ccc(OC(F)(F)F)cc2)c[nH]n1-c1ncccn1` [Example 93], the protective activity result is “clearly superior activity compared with the prior art”.
Same read-out and setting: under `O=c1c(-c2ccc(C(F)(F)F)cc2)c[nH]n1-c1ncccn1` [Example 100] stands “clearly superior activity compared with the prior art”; under `O=c1c(-c2cccc3ccccc23)c[nH]n1-c1ncccn1` [Example 105], “clearly superior activity compared with the prior art”.

A further assay deals with Pyricularia oryzae.
Assay: not given
It counts as in vivo. The settings on record: rice, soil watered 7 days before inoculation, disease infestation 4 days after inoculation.
Consider `O=c1c(-c2ccc(OC(F)(F)F)cc2)c[nH]n1-c1ccccn1` [Example 18], for which the systemic activity entry is “clearly superior activity compared with the prior art”.
The same measure, in the same setting: as for `O=c1c(-c2ccc(SC(F)(F)F)cc2)c[nH]n1-c1ncccn1` [Example 94], the entry is “clearly superior activity compared with the prior art”.
As for `Cc1cccc(-c2c[nH]n(-c3ncccn3)c2=O)c1` [Example 97], the systemic activity result is reported as “clearly superior activity compared with the prior art”.
Same read-out and setting: under `O=c1c(-c2cccc3ccccc23)c[nH]n1-c1ncccn1` [Example 105] stands “clearly superior activity compared with the prior art”.

For the next assay, the system named is Pyricularia oryzae.
Assay: not given
It counts as in vivo. The conditions noted are these: rice, sprayed, disease infestation 4 days after inoculation.
Regarding `O=c1c(-c2cc(C(F)(F)F)cc(C(F)(F)F)c2)c[nH]n1-c1ccccn1` [Example 28], the protective activity result was “clearly superior activity compared with the prior art”.
On to `O=c1c(-c2cccc3ccccc23)c[nH]n1-c1ncccn1` [Example 105], for which the protective activity result was “clearly superior activity compared with the prior art”.

The subject of the next assay is Aureobasidium pullulans. The assay is described as follows: MIC on fungi in agar. The settings on record: 336 h.
Experimental: (§1) After storage for 2 weeks at 28° C. and 60 to 70% relative atmospheric humidity, the MIC is determined.
What is called MIC is the lowest concentration that inhibits growth of the organism. A lower MIC goes with a more susceptible organism. As to `O=c1c(-c2ccccc2F)c[nH]n1-c1ccccn1` [Example 5], the MIC amounted to 20 µg/mL (≈ 78.4 µM).
On the same count and under the same terms, as for `Cc1cccc(-c2c[nH]n(-c3ncccn3)c2=O)c1` [Example 97], the figure is 50 µg/mL (≈ 198 µM); as for `O=c1c(-c2ccc(C(F)(F)F)cc2)c[nH]n1-c1ncccn1` [Example 100], 50 µg/mL (≈ 163 µM).

Another assay concerns Chaetomium globosum. The assay is described as follows: MIC on fungi in agar. The conditions noted are these: 336 h.
Experimental: as §1
In turn, `O=c1c(-c2ccccc2F)c[nH]n1-c1ccccn1` [Example 5] returned an MIC of 0.5 µg/mL (≈ 1.96 µM).
Regarding `Cc1cccc(-c2c[nH]n(-c3ncccn3)c2=O)c1` [Example 97], the MIC was found to be 1 µg/mL (≈ 3.96 µM).
On the same count and under the same terms, under `O=c1c(-c2ccc(C(F)(F)F)cc2)c[nH]n1-c1ncccn1` [Example 100] stands 1 µg/mL (≈ 3.27 µM).

The test system of a further assay is Lentinus tigrinus. The assay is described as follows: MIC on fungi in agar. The settings on record: 336 h.
Experimental: as §1
The compound `O=c1c(-c2ccccc2F)c[nH]n1-c1ccccn1` [Example 5] had an MIC of 20 µg/mL (≈ 78.4 µM).
The same measure, in the same setting: under `Cc1cccc(-c2c[nH]n(-c3ncccn3)c2=O)c1` [Example 97] stands 10 µg/mL (≈ 39.6 µM); under `O=c1c(-c2ccc(C(F)(F)F)cc2)c[nH]n1-c1ncccn1` [Example 100], 15 µg/mL (≈ 49 µM).

A further assay has as its system Leptosphaeria nodorum. The assay is described as follows: Leptosphaeria nodorum test (wheat)/protective. The settings on record: sprayed, evaluation 10 days after inoculation. It counts as in vivo. How it is done:
Leptosphaeria nodorum test (wheat)/protective Solvent: 100 parts by weight of dimethylformamide Emulsifier: 0.25 parts by weight of alkylaryl polyglycol ether To produce a suitable preparation of active compound, 1 part by weight of active compound is mixed with the stated amounts of solvent and emulsifier, and the concentrate is diluted with water to the desired concentration. To test for protective activity, young plants are sprayed with the preparation of active compound until dew-moist. After the spray coating has dried on, the plants are sprayed with a conidia suspension of Leptosphaeria nodorum. The plants remain for 48 hours in an incubation cabinet at 20° C. and 100% relative atmospheric humidity. The plants are placed in a greenhouse at a temperature of about 15° C. and a relative atmospheric humidity of about 80%. Evaluation is effected 10 days after the inoculation.
Consider `O=c1c(-c2ccccc2F)c[nH]n1-c1ccccn1` [Example 5], for which the protective activity entry is “clearly superior activity compared with the prior art”.
Take `O=c1c(-c2ccc(OC(F)(F)F)cc2)c[nH]n1-c1ccccn1` [Example 18]: the protective activity entry is “clearly superior activity compared with the prior art”.
In the case of `O=c1c(-c2cc(C(F)(F)F)cc(C(F)(F)F)c2)c[nH]n1-c1ccccn1` [Example 28], the protective activity entry was “clearly superior activity compared with the prior art”.
`O=c1c(-c2ccc(C(F)(F)F)cc2)c[nH]n1-c1ncccn1` [Example 100]: the protective activity entry was “clearly superior activity compared with the prior art”.

For a further assay, the system named is Aspergillus niger. Put plainly: MIC on fungi in agar. The settings on record: 336 h.
Experimental: as §1
`O=c1c(-c2ccccc2F)c[nH]n1-c1ccccn1` [Example 5] came in with an MIC of 3.5 µg/mL (≈ 13.7 µM).
As for `Cc1cccc(-c2c[nH]n(-c3ncccn3)c2=O)c1` [Example 97], inhibition of growth (MIC) required 10 µg/mL (≈ 39.6 µM).
Compound `O=c1c(-c2ccc(C(F)(F)F)cc2)c[nH]n1-c1ncccn1` [Example 100] showed an MIC of 500 µg/mL (≈ 1630 µM).

The subject of the next assay is Cochliobolus sativus. Put plainly: Cochliobolus sativus test (barley)/protective. Type of assay: in vivo. The conditions noted are these: sprayed, evaluation 7 days after inoculation. The procedure: Cochliobolus sativus test (barley)/protective Solvent: 100 parts by weight of dimethylformamide Emulsifier: 0.25 parts by weight of alkylaryl polyglycol ether To produce a suitable preparation of active compound, 1 part by weight of active compound is mixed with the stated amounts of solvent and emulsifier, and the concentrate is diluted with water to the desired concentration. To test for protective activity, young plants are sprayed with the preparation of active compound until dew-moist. After the spray coating has dried on, the plants are sprayed with a conidia suspension of Cochliobolus sativus. The plants remain in an incubation cabinet for 48 hours at 20° C. and 100% relative atmospheric humidity. The plants are placed in a greenhouse at a temperature of about 20° C. and a relative atmospheric humidity of about 80%. Evaluation is carried out 7 days after the inoculation.
Take `O=c1c(-c2ccccc2F)c[nH]n1-c1ccccn1` [Example 5]: the protective activity entry was “clearly superior activity compared with the prior art”.
Still for that read-out and setting: under `O=c1c(-c2ccc(OC(F)(F)F)cc2)c[nH]n1-c1ccccn1` [Example 18] stands “clearly superior activity compared with the prior art”; under `O=c1c(-c2cc(C(F)(F)F)cc(C(F)(F)F)c2)c[nH]n1-c1ccccn1` [Example 28], “clearly superior activity compared with the prior art”; under `O=c1c(-c2cccc(OC(F)(F)F)c2)c[nH]n1-c1ncccn1` [Example 92], “clearly superior activity compared with the prior art”.
Still for that read-out and setting: as for `O=c1c(-c2ccc(C(F)(F)F)cc2)c[nH]n1-c1ncccn1` [Example 100], the entry is “clearly superior activity compared with the prior art”.

In another assay the test system is Trichoderma viride. The assay is described as follows: MIC on fungi in agar. The conditions noted are these: 336 h.
Experimental: as §1
In the case of `O=c1c(-c2ccccc2F)c[nH]n1-c1ccccn1` [Example 5], the MIC is 35 µg/mL (≈ 137 µM).
With `Cc1cccc(-c2c[nH]n(-c3ncccn3)c2=O)c1` [Example 97], the lowest concentration to inhibit growth (MIC) was 75 µg/mL (≈ 297 µM).
On the same count and under the same terms, under `O=c1c(-c2ccc(C(F)(F)F)cc2)c[nH]n1-c1ncccn1` [Example 100] stands 500 µg/mL (≈ 1630 µM).

In a further assay the test system is Alternaria tenuis. The assay is described as follows: MIC on fungi in agar. The conditions noted are these: Alternaria alternata, 336 h.
Experimental: as §1
With `O=c1c(-c2ccccc2F)c[nH]n1-c1ccccn1` [Example 5], the minimal inhibitory concentration (MIC) was 20 µg/mL (≈ 78.4 µM).
Turning to `Cc1cccc(-c2c[nH]n(-c3ncccn3)c2=O)c1` [Example 97], the MIC worked out at 50 µg/mL (≈ 198 µM).
On the same count and under the same terms, under `O=c1c(-c2ccc(C(F)(F)F)cc2)c[nH]n1-c1ncccn1` [Example 100] stands 50 µg/mL (≈ 163 µM).

The test system of the next assay is Penicillium glaucum. Put plainly: MIC on fungi in agar. The settings on record: 336 h.
Experimental: as §1
In the case of `O=c1c(-c2ccccc2F)c[nH]n1-c1ccccn1` [Example 5], the MIC was found to be 5 µg/mL (≈ 19.6 µM).
For `Cc1cccc(-c2c[nH]n(-c3ncccn3)c2=O)c1` [Example 97], the MIC was determined as 10 µg/mL (≈ 39.6 µM).
Same read-out and setting: under `O=c1c(-c2ccc(C(F)(F)F)cc2)c[nH]n1-c1ncccn1` [Example 100] stands 10 µg/mL (≈ 32.7 µM).

The next assay has as its system Sclerophoma pityophila. The assay is described as follows: MIC on fungi in agar. The settings on record: Sydowia polyspora, 336 h.
Experimental: as §1
`O=c1c(-c2ccccc2F)c[nH]n1-c1ccccn1` [Example 5] yielded an MIC of 15 µg/mL (≈ 58.8 µM).
On the same count and under the same terms, under `Cc1cccc(-c2c[nH]n(-c3ncccn3)c2=O)c1` [Example 97] stands 20 µg/mL (≈ 79.3 µM).
The same measure, in the same setting: under `O=c1c(-c2ccc(C(F)(F)F)cc2)c[nH]n1-c1ncccn1` [Example 100] stands 20 µg/mL (≈ 65.3 µM).

A further assay deals with Botrytis cinerea. The assay is described as follows: Botrytis test (BEAN)/protective. The settings on record: sprayed, infected spots on leaves evaluated 3 days after inoculation. Type of assay: in vivo. The procedure:
Botrytis test (BEAN)/protective Solvent: 4.7 parts by weight of acetone Emulsifier: 0.3 parts by weight alkyl aryl polyglycol ether To produce a suitable preparation of active compound, 1 pat by weight of active compound is mixed with the stated amounts of solvent and emulsifier, and the concentrate is diluted with water to the desired concentration. To test for protective activity, young plants are sprayed with the preparation of active compound until dripping wet. After the spray coating has dried on, 2 small pieces of agar covered with Botrytis cinerea are placed on each leaf. The inoculated plants are placed in a darkened humidity chamber at 20° C. 3 days after the inoculation, the size of the infected spots on the leaves is evaluated.
Regarding `O=c1c(-c2ccc(SC(F)(F)F)cc2)c[nH]n1-c1ncccn1` [Example 94], the protective activity entry is reported as “clearly superior activity compared with the prior art”.

In a further assay the test system is Coniophora puteana. The assay is described as follows: MIC on fungi in agar. The conditions noted are these: 336 h.
Experimental: as §1
For `O=c1c(-c2ccccc2F)c[nH]n1-c1ccccn1` [Example 5], the lowest concentration to inhibit growth (MIC) was 2 µg/mL (≈ 7.84 µM).
On the same count and under the same terms, under `Cc1cccc(-c2c[nH]n(-c3ncccn3)c2=O)c1` [Example 97] stands 2 µg/mL (≈ 7.93 µM); under `O=c1c(-c2ccc(C(F)(F)F)cc2)c[nH]n1-c1ncccn1` [Example 100], 5 µg/mL (≈ 16.3 µM).

The subject of a further assay is Polyporus versicolor. Put plainly: MIC on fungi in agar. The conditions noted are these: Trametes versicolor, 336 h.
Experimental: as §1
Turning to `O=c1c(-c2ccccc2F)c[nH]n1-c1ccccn1` [Example 5], the lowest concentration to inhibit growth (MIC) was 7.5 µg/mL (≈ 29.4 µM).
The same measure, in the same setting: under `Cc1cccc(-c2c[nH]n(-c3ncccn3)c2=O)c1` [Example 97] stands 5 µg/mL (≈ 19.8 µM); under `O=c1c(-c2ccc(C(F)(F)F)cc2)c[nH]n1-c1ncccn1` [Example 100], 5 µg/mL (≈ 16.3 µM).
